In PMC5907308, “21st Brazilian Diabetes Society Congress” (Diabetology & Metabolic Syndrome, 2018):
Where two headings read alike, the source gives them in different places.

Legend:
Gram-positive = test: Antibiogram of tissue fragment cultures of infected diabetic foot ulcers, Gram-positive; format: cell-based; settings: 51 cultures of tissue fragment, WHONET 5.6, Graphic 2
Description: DFU patients with tissue fragment culture and antibiogram were included in the study sample. Microbiota resistance profile analyzed through WHO freeware softwares BACLINK 2.0 and WHONET 5.6.

[1] = test system: Slc2a4/GLUT4 expression in 3T3-L1 cell line adipocytes; test: Slc2a4/GLUT4 expression in adipocytes (Western blotting, RTqPCR); format: cell-based; settings: 24 h; E2 10 nM; PPT 10 nM; DPN 100 nM, in the presence or absence of E2
Method: It is known that estradiol (E2) via its receptors, ER-alpha and ER-beta, regulates the gene expression through direct binding to DNA, or through interactions with transcription factors, among them SP1 (Sp1 transcription factor). […] Thus, the role of SP1 in the expression of estradiol-mediated Slc2a4/GLUT4 in 3T3-L1 cell line adipocytes was evaluated in an attempt to understand the role of each estradiol receptors in this regulation. For this, the adipocytes were treated with 10 nM estradiol plus 0.05% DMSO (used to solubilize the ER agonists) for 24 h. Cells were also cultured with selective agonists of the different ER isoforms. To evaluate the ER-alpha, the PPT was used, in the concentration of 10 nM, with or without 10 nM of E2 (10E2 + PPT); to evaluate the ER-beta, the DPN was used in the concentration of 100 nM, with or without 10 nM of E2 (10E2 + DPN); always for 24 h. In the control group (0E2), cells were treated with only 0.05% DMSO (vehicle of agonists). The analyzes were: quantification of total GLUT4 protein, nuclear SP1 and nuclear ER-alpha/beta (Western blotting); expression of the Slc2a4 and Sp1 (RTqPCR) genes; and binding activity of the ERs to the SP1 binding site on the Slc2a4 promoter (electrophoretic mobilization, EMSA). Treatment with E2 increased the expression of Slc2a4/GLUT4. […] However, it was observed that both ERalpha and ER-beta activation increased the nuclear content of the transcription factor SP1, however, only the ER-alpha effect, especially isolated, seems to involve SP1 in the observed regulation.

C57BL/6 mice = test system: C57BL/6 mice
Method: Methods: C57BL/6 mice received vehicle or dapagliflozin (1, 5 or 10 mg/kg) by gavage once a day for 2 weeks. Body weight and food intake were evaluated at treatment times 0, 7 and 14 days. At the end of the treatment, glucose tolerance was evaluated by ipGTT as well as epididymal adipose tissue weight and neurotransmitters by immunofluorescence.

[2] = test system: patient with type 2 diabetes mellitus
Method: Case report: M.G.G.A, person, married, sought an endocrinologist in 2014 due to the diagnosis of type 2 diabetes mellitus 3 years ago, they used glimeperide 4 mg/day and metformin (MTF) 1 g/day. They were hypertensive and dyslipidemic, already under treatment, and reported difficulty in losing and maintaining weight for several years. They denied physical activity (PA) practice for 1 month (before walking 3x/week) and in a 24-hour diet reminder there was an excess of simple carbohydrate (SC) intake and saturated fat (SF). […] The patient was oriented to change their lifestyle and it was also requested exams. […] At this time, due financial limitation, they were directed to maintain medications, prescribed vitamin D3 14,000 IU/week and stimulated lifestyle change (LC).

[3] = test system: patient with type 2 diabetes; settings: in vivo
Method: An overweight person (BMI 37.4 kg/m^2) with a 9-year history of type 2 diabetes had been taking metformin (1 g/day), glyburide (10 mg/day) and vildaglipitin (100 mg/day) for 7 years. They were admitted for elective bariatric surgery and stopped their medications a day before. […] It is known that there are some factors that contribute for DKA, like decreasing in-carbohydrate intake, infection or reduction of insulin therapy.

patients with DM1 = test system: patients with DM1
Method: Methods: Observational and retrospective study in which they were analysed the medical recordo f patients with DM1 who made use of this medication in dose of 10 mg/day through 3-6 months.

[4] = test system: healthy and non-diabetic women; settings: after 7 days
Method: Methods: Twenty healthy and non-diabetic women (19–37 years old) were evaluated at baseline and 7 days after dapagliflozin (10 mg/day), maintaining their regular lifestyle. Body mass index (BMI), sagittal abdominal diameter, body composition by electrical bioimpedance and energy expenditure of resting and oxidation of energetic substrates in fasting by indirect calorimetry were analyzed. Functional magnetic resonance imaging detected the activation of brain areas against the stimulation of glucose and dapagliflozin. From the oral glucose tolerance test (TTOG), insulin sensitivity, hepatic insulin extraction and beta-cell function were assessed by mathematical modeling. Moreover, glucose, insulin, peptide C, glucacon, glycated hemoglobin, adiponectin and free fatty acids were measured.

[5] = test system: patients after Roux-en-Y gastric bypass; test: Postprandial hyperinsulinemic hypoglycemia after RYGB, case series; format: in vivo, human; settings: Case 1
Method: Cases report: Case (1) A person developed postprandial hypoglycemic episodes 6 years after Roux-en-Y gastric bypass (RYGB). A mixed meal tolerance test (MMTT, 500 kcal, 20% protein, 20% fat and 60% carbohydrates) was performed, leading to symptomatic postprandial hyperinsulinemic hypoglycemia (PHH) with a nadir of 45 mg/dL at 120 min (insulin of 8 mU/L; C-peptide of 3.21 ng/mL). […] Cases 2 and 3). Two […] women presented hypoglycemia following meals 3 and 5 years after RYGB. MMTT (120 min): glycemia of 34 mg/dL, insulin of 17 mU/L and C-peptide of 6.23 ng/mL and, in the second one, glycemia of 52 mg/dL, insulin of 9 mU/L and C-peptide of 2.7 ng/mL. PT and MRCP were normal in both cases. […] Case 4). A person who underwent RYGB 1.5 years ago reported hypoglycemic episodes in the last 6 months. MMTT: glycemia of 26 mg/dL at 150 min, insulin of 34 mU/L and C-peptide of 6.03 ng/mL. […] They were submitted to distal pancreatectomy and symptoms disappeared after diazoxid and hydrochlorothiazide. Case 5). A person developed hypoglycemia 10 years after RYGB. […] MMTT: glycemia of 43 mg/dL at 120 min, insulin of 100 mU/L and C-peptide of 1.95 ng/mL. […] Antiinsulin antibodies were negative in all cases (Table 1).

patient with T2DM = format: in vivo; settings: systemic treatment
participants with T2DM = test: Vitamin D supplementation, randomized placebo-controlled trial, oxidative stress biomarkers; format: in vivo, human
Method: Methods: The participants (n = 31; age 46 ± 6.45 years; sex 21/10 female/male) with T2DM were enrolled in this study in two groups. One group received one capsule/week of vitamin D (50.000 U) or placebo for 90 days. At the beginning and after intervention, laboratory analyses (biochemical and OS markers) were performed. After fasting for 12 h, the subjects underwent the following laboratory blood analysis: glucose, lipid profile, uric acid, and C-reactive protein (CRP) which were evaluated by a biochemical autoanalyzer (Dimension Dade AR; Dade Behring), insulin and vitamin D were evaluated by MEIA (AxSYM, Abbott Laboratory, Abbott Park, IL, USA). Advanced oxidation protein products (AOPP) were determined in the plasma using the semiautomated method described by Witko-Sarsat. Analysis of plasma hydroperoxide concentrations was evaluated by two methods (tertbutyl hydroperoxide-initiated chemiluminescence and FOX assay). This study was conducted according to the principles of the Helsinki, and the study protocol was approved by the ethics committee of the University (CAAE: 41718014.9.0000.5231). Kruskal- Wallis with post hoc Dunn’test was performed to verify differences across intervention (placebo or vitamin D). Graph Pad Instat 3 version was used for evaluations.

patient with BSCL = test: Case report: metreleptin in Berardinelli-Seip congenital lipodystrophy; format: in vivo, human
Method: Case presentation: Two brothers with neonatal diagnosis of Berardinelli-Seip Congenital Lipodystrophy (BSCL), without cases of diabetes or similar diseases in their family. Clinically, both present muscular hypertrophy and acromegaloid features. […] Serum leptin 1 ng/mL (reference range: 2–18). […] Leptin 1.3 ng/mL. In 2016, HbA1C 7.8%, in use of Metformin 2 g/day, pioglitazone and vitamins E, A and D supplementation. […] By that time, Metreleptin was initiated at a 5 mg/day dose (0.07 mg/kg/day) and Metformin was maintained. After 3 months, the patient has HbA1C 5%, triglyceride level 70 mg/dL, TGO 42 U/L and TGP 32 U/L.

child with CGL type 2 = test: Case report: high doses of insulin in congenital generalized lipodystrophy; format: in vivo, human; settings: continuous IV infusion of RI raised to 26.6 IU/kg/day
Method: Case: Child with clinical diagnosis of CGL type 2 and diagnosis of diabetes for 1 year. Using Glargina and Lispro insulin basal/bolus (5.1 IU/kg/day) presented mean daily capillary glycemia above 600 mg/dl, associated with irritability, low weight and voracious appetite. Interned for intravenous insulin therapy and nutritional adjustment with standardized diet of 1600 kcal/day fractionated in 7 meals. Initiated continuous infusion of regular insulin (RI), 6.1UI/kg/day. […] Subsequently, it was modified to intramuscular administration, in 5 application times, without differences in glycemic averages. On the 36 th day, Degludeca insulin was introduced (9.3 IU/kg/day) associated with RI (18.2 U/kg/day), evolving within the first 24 h with improved glycemia (180 ± 42 mg/dl). […] After approximately fivefold increase in the initial insulin dose, there was improvement in glycemia, irritability, weight gain and decreased appetite.

CO/N=C(\C(=O)N[C@@H]1C(=O)N2C(C(=O)O)=C(CSc3nc(=O)c(=O)[nH]n3C)CS[C@H]12)c1csc(N)n1 [Ceftriaxone]
%R (resistance), Gram-positive (Gram-positive): 70%

N#CC(Cc1ccc(O)cc1)c1ccc(O)cc1 (centres unmarked) [DPN]
Slc2a4/GLUT4 expression [1]: decreased

CCOc1ccc(Cc2cc([C@@H]3O[C@H](CO)[C@@H](O)[C@H](O)[C@H]3O)ccc2Cl)cc1 [Dapaglifozin, dapagliflozin]
body weight gain (mean) (C57BL/6 mice; 1, 5 or 10 mg/kg, 2 weeks, p < 0.05): 0.56 ± 1.1 g
food intake (C57BL/6 mice; 2 weeks): did not alter food intake significantly
fasting glycemia (mean) (C57BL/6 mice; 2 weeks, p < 0.05): 165.6 ± 28.8 mg/dL
epididymal adipose mass (mean) (C57BL/6 mice; 2 weeks, p = 0.13): 0.15 ± 0.02 g
area under glucose curve during the glucose tolerance test (mean) (C57BL/6 mice; ipGTT, p < 0.05): 28,078 ± 5623.5 arbitrary units
glycosuria (mean) (C57BL/6 mice; min = 30, max = 1221, p < 0.05): 307.2 mg/dL
weight (W) ([2]; 9 months of DAPA 10 mg/day and MTF 1 g/day, 78.6 kg before): 69.9 kg
BMI ([2]; 9 months, 33.14 before): 29.47 kg/m^2
abdominal circumference (AC) ([2]; 9 months, 108 cm before): 98 cm
postprandial glycemia (PPG) ([2]; 9 months, 163 before): 152 mg/dL
fasting glycemia (FG) ([2]; 9 months, 166 before): 118 mg/dL
Hb1Ac ([2]; 9 months, […] before): 7.0%
HbA1c ([2]; during 3 years of follow-up): around 6.8%
weight (W) ([2]; during 3 years of follow-up): 69 kg
arterial pH at readmission [3]: 7.23
bicarbonate at readmission [3]: 5 mEq/L
glucose at readmission [3]: 165 mg/dL
average BMI after treatment (patients with DM1; 26.1 before, p = 0.002): 25.4 kg/m^2
systolic blood pressure, median after therapy (patients with DM1; 120 mmHg before, p = 0.02): 115 mmHg
patients with ketoacidosis (patients with DM1; in vivo): 8.3%
patients with pain or pruritus on genital region (patients with DM1; in vivo): 33.3%
patients with urinary tract infection (UTI) (patients with DM1; n = 12): 8.3%
average weight after therapy (patients with DM1; n = 12, 68.3 kg before, p = 0.002): 65.3 kg
adiponectin levels ([4]; 3.2 ± 1.4 at baseline, p = 0.02): 5.7 ± 3.3 µg/mL
insulinemia ([4]; 5.7 ± 3.6 at baseline, p = 0.05): 3.9 ± 3.5 mU/mL
BMI ([4]; 21.7 ± 2.0 at baseline, p = 0.05): 21.5 ± 2.0 kg/m^2
fat percentage ([4]; 28.4 ± 6.3 at baseline, p = 0.46): 27.6 ± 4.0%
glycemia ([4]; 75 ± 7 at baseline, p = 0.02): 71 ± 7 mg/dL

C[C@]12CC[C@@H]3c4ccc(O)cc4CC[C@H]3[C@@H]1CC[C@@H]2O [E2, estradiol]
Slc2a4/GLUT4 expression [1]: increased

CC[C@H]1OC(=O)[C@H](C)[C@@H](O[C@H]2C[C@@](C)(OC)[C@@H](O)[C@H](C)O2)[C@H](C)[C@@H](O[C@@H]2O[C@H](C)C[C@H](N(C)C)[C@H]2O)[C@](C)(O)C[C@@H](C)C(=O)[C@H](C)[C@@H](O)[C@]1(C)O [Erythromycin]
%R (resistance), Gram-positive (Gram-positive): 70%

Cc1onc(-c2ccccc2)c1C(=O)N[C@@H]1C(=O)N2[C@@H]1SC(C)(C)[C@@H]2C(=O)O [Oxacillin]
%R (resistance), Gram-positive (Gram-positive): 70%

CCCc1c(-c2ccc(O)cc2)nn(-c2ccc(O)cc2)c1-c1ccc(O)cc1 [PPT]
Slc2a4/GLUT4 expression [1]: increase

CC1=Nc2ccc(Cl)cc2S(=O)(=O)N1 [diazoxid]
clinical response of postprandial hypoglycemia [5]: hypoglycemia was avoided

CCN(CC)CC#CCOC(=O)C(O)(c1ccccc1)C1CCCCC1 (centres unmarked) [oxybutynin]
response of gustatory sweating (patient with T2DM): excellent response as early as week 1
side effect (patient with T2DM): mild side effect of xerostomia

C=C1CC[C@H](O)C/C1=C/C=C1\CCC[C@]2(C)[C@@H]([C@H](C)/C=C/[C@H](C)C(C)C)CC[C@@H]12 [vitamin D]
hydroperoxides levels vs placebo group (participants with T2DM; 50.000 U/week, 90 days, p = 0.008): significant reduction
FOX levels vs placebo group (participants with T2DM; 50.000 U/week, 90 days, p = 0.08): trend to decrease
AOPP vs placebo group (participants with T2DM; one capsule/week 50.000 U for 90 days, plasma, p = 0.05): significant reduction

Metreleptin: a recombinant leptin analog
HbA1C (patient with BSCL; 3 months of Metreleptin 5 mg/day with Metformin, […] before): 5%
TGO (patient with BSCL; after 3 months): 42 U/L
TGP (patient with BSCL; after 3 months): 32 U/L

RI: regular insulin
mean capillary glycemia (child with CGL type 2): 283 ± 99 mg/dL
